The nature of this data set: Tacrolimus tissue pharmacokinetics, oral vs intra-cecal ingestible device delivery. It counts as in vivo, Yorkshire-Cross farm swine. Conditions: swine; intra-cecal as compared to oral administration, 12 hours post-dose. Here is the method:
The primary objective of this study was to compare the tissue, plasma, rectal sample, and GI content pharmacokinetics of tacrolimus through oral versus intra-cecal ingestible device delivery in normal Yorkshire-Cross farm swine.
No further randomization procedure was employed.
Animals in Group 1 received an ingestible device containing 0.8 mL of vehicle solution (80% alcohol, 20% HCO-60). Animals in Group 2 received orally […] liquid formulation of tacrolimus at 4 mg/0.8 mL per animal (Prograf: 5 mg/mL). Animals in Group 3 received intra-cecally an ingestible device containing tacrolimus at 1 mg in 0.8 mL per ingestible device. […]
Approximately 200˜400 mg of rectal content were collected, if available, with a fecal swab (Copan Diagnostics Nylon Flocked Dry Swabs, 502CS01). The fecal swab was pre-weighed and weighed after collection in the collection tube (Sterile Tube and Cap No Media, PFPM913S), and the sample weight was recorded. […]
For tissue necropsy, small intestine fluid and cecal fluid were collected separately from all the animals into two separate square plastic bottles, and stored at −20° C. The length and diameter of the cecum and the colon was measured from one animal in each group and recorded for reference. […] All samples were weighed, and the tissue sample weights were recorded. […]

As to `C=CC[C@@H]1/C=C(\C)C[C@H](C)C[C@H](OC)[C@H]2O[C@@](O)(C(=O)C(=O)N3CCCC[C@H]3C(=O)O[C@H](/C(C)=C/[C@@H]3CC[C@@H](O)[C@H](OC)C3)[C@H](C)[C@@H](O)CC1=O)[C@H](C)C[C@@H]2OC` [tacrolimus], the “mean concentration in the cecum tissue and the proximate colon tissue (FIG. 76)” value is “higher”.

For the origin of these results see patent US11134889B2, “Treatment of a disease of the gastrointestinal tract with a SMAD7 inhibitor” (Progenity, Inc., priority 2016, dated 2021).
